Results on 39 compounds are retold here after patent publication US11230541B2, “Heterocyclic compound” (Takeda Pharmaceutical Company Limited, priority 2017, dated 2022).

For this assay, the target named is T1, NMDA receptor composed of four subunits including 2 sets of heterodimers of NR1 and NR2B (Homo sapiens, UniProt Q13224).
T1 construct: host or cells: HEK293 (tetracycline-induced expression)
T1 sequence (Q13224 27-1484, other chains not shown): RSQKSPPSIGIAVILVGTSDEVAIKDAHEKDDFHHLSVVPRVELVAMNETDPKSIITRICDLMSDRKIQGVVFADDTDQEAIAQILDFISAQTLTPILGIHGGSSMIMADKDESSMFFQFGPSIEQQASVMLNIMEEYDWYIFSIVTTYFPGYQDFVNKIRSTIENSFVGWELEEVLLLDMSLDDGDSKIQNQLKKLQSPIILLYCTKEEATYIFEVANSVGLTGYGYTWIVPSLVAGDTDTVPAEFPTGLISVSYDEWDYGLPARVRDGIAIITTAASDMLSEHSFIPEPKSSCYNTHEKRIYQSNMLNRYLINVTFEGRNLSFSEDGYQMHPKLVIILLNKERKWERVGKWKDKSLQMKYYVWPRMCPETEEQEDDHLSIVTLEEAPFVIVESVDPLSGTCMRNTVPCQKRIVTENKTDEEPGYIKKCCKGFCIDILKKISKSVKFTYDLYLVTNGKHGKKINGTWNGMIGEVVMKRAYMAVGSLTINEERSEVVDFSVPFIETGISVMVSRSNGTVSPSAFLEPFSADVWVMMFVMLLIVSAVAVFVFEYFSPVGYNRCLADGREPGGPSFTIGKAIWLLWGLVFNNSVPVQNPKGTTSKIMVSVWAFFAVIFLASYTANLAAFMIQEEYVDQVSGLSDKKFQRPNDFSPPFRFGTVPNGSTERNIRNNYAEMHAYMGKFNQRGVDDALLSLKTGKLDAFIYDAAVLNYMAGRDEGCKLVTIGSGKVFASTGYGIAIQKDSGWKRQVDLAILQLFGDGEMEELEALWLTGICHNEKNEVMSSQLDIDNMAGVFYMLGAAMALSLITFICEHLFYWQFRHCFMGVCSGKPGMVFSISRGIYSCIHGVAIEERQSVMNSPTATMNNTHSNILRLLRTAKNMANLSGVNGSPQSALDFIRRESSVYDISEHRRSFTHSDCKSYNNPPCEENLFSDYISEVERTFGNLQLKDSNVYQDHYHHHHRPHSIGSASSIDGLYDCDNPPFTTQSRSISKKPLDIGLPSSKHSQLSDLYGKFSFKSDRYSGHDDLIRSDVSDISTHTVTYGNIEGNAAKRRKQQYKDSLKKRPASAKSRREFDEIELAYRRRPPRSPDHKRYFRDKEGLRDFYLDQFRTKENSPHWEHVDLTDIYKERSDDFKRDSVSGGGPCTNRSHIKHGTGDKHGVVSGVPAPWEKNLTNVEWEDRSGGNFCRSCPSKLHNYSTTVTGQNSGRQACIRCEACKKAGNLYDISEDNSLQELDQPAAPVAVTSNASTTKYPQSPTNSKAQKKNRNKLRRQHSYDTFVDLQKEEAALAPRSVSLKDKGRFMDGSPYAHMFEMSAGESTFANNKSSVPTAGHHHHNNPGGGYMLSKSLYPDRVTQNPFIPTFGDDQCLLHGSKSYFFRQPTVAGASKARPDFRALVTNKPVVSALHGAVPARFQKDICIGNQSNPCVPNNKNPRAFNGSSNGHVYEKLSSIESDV
The assay is described as follows: NR2B Ca2+ influx assay (FLIPR, Fluo-4) in HEK293 cells expressing human GRIN1 and GRIN2B. Type of assay: cell-based. The note with it: HEK293, 10 μM final compound concentration, glutamic acid/glycine-induced Ca2+ influx, read-out: inhibitory rate (10 μM compound concentration). Put shortly: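 Tetracycline-induced (2 h) HEK293 cells expressing human GRIN1/GRIN2B, Fluo-4-loaded, were preincubated 15 min at room temperature with compound at 10 μM final. FLIPR recorded Ca2+ influx every 3 s for 5 min after glutamate/glycine addition (30 μM in added buffer); inhibition from cumulative fluorescence relative to agonist-free wells.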
In the case of `COc1ccc2nc(C)n(C)c2c1CNC(=O)c1ccc(Cl)cc1` [Example 249, 4-chloro-N-((6-methoxy-1,2-dimethyl-1H-benzimidazol-7-yl)methyl)benzamide], the inhibition at 10 µM worked out at 57%. For `CCOc1ncc(C(=O)NCc2c(OC)ccc3nc(C)n(C)c23)cc1F` [Example 234, 6-ethoxy-5-fluoro-N-((6-methoxy-1,2-dimethyl-lH-benzimidazol-7-yl)methyl)nicotinamide], the inhibition at 10 µM amounted to 73%. `O=C(NCc1c(C2CC2)ccc2[nH]ncc12)c1ccc(F)c(Cl)c1` [Example 77, 3-chloro-N-((5-cyclopropyl-1H-indazol-4-yl)methyl)-4-fluorobenzamide]: the inhibition at 10 µM stood at 92%. In the case of `COc1ccc(C(=O)NCc2c(C)ccc3ncn(C)c23)cc1F` [Example 129, N-((1,6-dimethyl-1H-benzimidazol-7-yl)methyl)-3-fluoro-4-methoxybenzamide] it was 88%. In the case of `O=C(NCc1c(I)ccc2[nH]ncc12)c1ccc(OC(F)(F)F)cc1` [Example 4, N-((5-iodo-1H-indazol-4-yl)methyl)-4-(trifluoromethoxy)benzamide] it was 87%. As for `O=C(NCc1cccc2[nH]ncc12)c1cc(F)c(OC(F)F)c(F)c1` [Example 184, 4-(difluoromethoxy)-3,5-difluoro-N-(1H-indazol-4-ylmethyl)benzamide], the figure is 93%; as for `CCc1ccc2ncn(C)c2c1CNC(=O)c1ccc(OC(F)(F)F)nc1` [Example 149, N-((6-ethyl-1-methyl-1H-benzimidazol-7-yl)methyl)-6-(trifluoromethoxy)-nicotinamide], 93%; as for `Cc1ccc(C(=O)NCc2c(C3CC3)ccc3[nH]ncc23)s1` [Example 64, N-((5-cyclopropyl-1H-indazol-4-yl)methyl)-methylthiophene-2-carboxamide], 91%. As to `COc1ccc2ncn(C)c2c1CNC(=O)c1ccc(C(F)(F)F)c(F)c1` [Example 13, 3-fluoro-N-((6-methoxy-1-methyl-1H-benzimidazol-7-yl)methyl)-4-(trifluoromethyl)benzamide], the inhibition at 10 µM was found to be 94%. As for `CCc1ccc2[nH]ncc2c1CNC(=O)c1cc(F)c(OC)c(F)c1` [Example 16, N-((5-ethyl-1H-indazol-4-yl)methyl)-3,5-difluoro-4-methoxybenzamide], the figure is 94%; as for `COc1ccc2nc(C)n(C)c2c1CNC(=O)c1csc(C(F)F)c1` [Example 232, 5-(difluoromethyl)-N-((6-methoxy-1,2-dimethyl-lH-benzimidazol-7-yl)methyl)thiophene-3-carboxamide], 64%; as for `COc1cc(C(=O)NCc2c(C3CC3)ccc3[nH]ncc23)ccc1F` [Example 72, N-((5-cyclopropyl-1H-indazol-4-yl)methyl)-4-fluoro-3-methoxy-benzamide], 89%. In the case of `COc1ccc2ncn(C)c2c1CNC(=O)c1cc(F)c(OC)c(F)c1` [Example 8, 3,5-Difluoro-4-methoxy-N-((6-methoxy-1-methyl-1H-benzimidazol-7-yl)methyl)benzamide] it was 92%; in that of `COc1ccc2ncn(C)c2c1CNC(=O)c1ccc(C(F)F)cc1` [Example 123, 4-(difluoromethyl)-N-((6-methoxy-1-methyl-1H-benzimidazol-7-yl)methyl)benzamide], 88%. As for `Cn1nnc2cccc(CNC(=O)c3ccc(OC(F)(F)F)c(F)c3)c21` [Example 274, 3-fluoro-N-[(1-methyl-1H-benzotriazol-7-yl)methyl]-4-(trifluoromethoxy)-benzamide], the figure is 93%; as for `O=C(NCc1cccc2[nH]ncc12)c1csc(Cl)c1` [Example 166, 5-chloro-N-(1H-indazol-4-ylmethyl)thiophene-3-carboxamide], 56%. For the compound `Cc1csc(C(=O)NCc2c(C3CC3)ccc3[nH]ncc23)c1` [Example 63, N-((5-cyclopropyl-1H-indazol-4-yl)methyl)-methylthiophene-2-carboxamide], the inhibition at 10 µM amounted to 89%. For `COc1ccc2nc(C)n(C)c2c1CNC(=O)c1ccc(C(F)(F)F)s1` [Example 231, N-((6-methoxy-1,2-dimethyl-lH-benzimidazol-7-yl)methyl)-5-(trifluoromethyl)-thiophene-2-carboxamide], the inhibition at 10 µM amounted to 73%. With `O=C(NCc1c(C2CC2)ccc2[nH]ncc12)c1ccc(OC(F)F)cc1` [Example 100, N-((5-cyclopropyl-1H-indazol-4-yl)methyl)-4-(difluoromethoxy)-benzamide], the inhibition at 10 µM was 91%.

Turning to `COCc1ccc2ncn(C)c2c1CNC(=O)c1cc(F)c(OC)c(F)c1` [Example 279, 3,5-difluoro-4-methoxy-N-{[6-(methoxymethyl)-1-methyl-1H-benzimidazol-7-yl]methyl}benzamide], the inhibition at 10 µM is 88%. In the case of `Cc1ccc2ncn(C)c2c1CNC(=O)c1csc(C(F)(F)F)c1` [Example 163, N-((1,6-dimethyl-1H-benzimidazol-7-yl)methyl)-5-(trifluoromethyl)-thiophene-3-carboxamide] it was 89%; in that of `Cc1cc(C(=O)NCc2c(C3CC3)ccc3[nH]ncc23)cs1` [Example 66, N-((5-cyclopropyl-1H-indazol-4-yl)methyl)-methylthiophene-3-carboxamide], 91%. As for `Cc1ccc2ncn(C)c2c1CNC(=O)c1csc(Cl)c1` [Example 156, 5-chloro-N-((1,6-dimethyl-1H-benzimidazol-7-yl)methyl)thiophene-3-carboxamide], the inhibition at 10 µM stood at 76%. Turning to `Cc1ccc2[nH]nnc2c1CNC(=O)c1cnc(OC(F)F)c(F)c1` [Example 268, 6-(difluoromethoxy)-5-fluoro-N-((5-methyl-1H-benzotriazol-4-y1)methyl)nicotinamide], the inhibition at 10 µM was determined as 97%.

Take `COc1ccc2ncn(C)c2c1CNC(=O)c1csc(C)c1` [Example 27, N-((6-methoxy-1-methyl-1H-benzimidazol-7-yl)-methyl)-5-methylthiophene-3-carboxamide]: the inhibition at 10 µM is 82%.

Consider `Cc1ccc2ncn(C)c2c1CNC(=O)c1ccc(OC(F)F)nc1` [Example 159, 6-(difluoromethoxy)-N-((1,6-dimethyl-1H-benzimidazol-7-yl)methyl)nicotinamide], for which the inhibition at 10 µM worked out at 86%. As for `CCOc1ccc2ncn(C)c2c1CNC(=O)c1ccc(C(F)F)cc1` [Example 140, 4-(difluoromethyl)-N-((6-ethoxy-1-methyl-1H-benzimidazol-7-yl)methyl)benzamide], the figure is 90%; as for `Cc1ccc2[nH]cnc2c1CNC(=O)c1ccc(OC(F)(F)F)cc1` [Example 3, N-((5-methyl-1H-benzimidazol-4-yl)methyl)-4-(trifluoromethoxy)benzamide], 97%.

For `COc1ccc2nc(C)n(C)c2c1CNC(=O)c1csc(C(F)(F)F)c1` [Example 230, N-((6-methoxy-1,2-dimethyl-1H-benzimidazol-7-yl)methyl)-5-(trifluoromethyl)-thiophene-3-carboxamide], the inhibition at 10 µM is 82%. As for `O=C(NCc1c(C2CC2)ccc2[nH]ncc12)c1ccc(C(F)F)cc1` [Example 98, N-((5-cyclopropyl-1H-indazol-4-yl)methyl)-4-(difluoromethyl)-benzamide], the figure is 90%; as for `COc1ccc2[nH]nnc2c1CNC(=O)c1cc(F)c(OC)c(F)c1` [Example 207, 3,5-difluoro-4-methoxy-N-((5-methoxy-1H-benzotriazol-4-yl)methyl)benzamide], 98%. As for `COc1c(F)cc(C(=O)NCc2cccc3ncn(C)c23)cc1F` [Example 160, 3,5-difluoro-4-methoxy-N-((1-methyl-1H-benzimidazol-7-yl)methyl)benzamide], the figure is 65%. In the case of `COc1ccc2nc(C)n(C)c2c1CNC(=O)c1csc(Cl)c1` [Example 228, 5-chloro-N-((6-methoxy-1,2-dimethyl-1H-benzimidazol-7-yl)methyl)thiophene-3-carboxamide] it was 70%; in that of `O=C(NCc1c(C2CC2)ccc2[nH]ncc12)c1csc(C(F)F)c1` [Example 154, N-((5-cyclopropyl-1H-indazol-4-yl)methyl)-5-(difluoromethyl)-thiophene-3-carboxamide], 91%. Turning to `CCc1ccc2ncn(C)c2c1CNC(=O)c1ccc(C(F)F)cc1` [Example 133, 4-(difluoromethyl)-N-((6-ethyl-1-methyl-1H-benzimidazol-7-yl)methyl)benzamide], the inhibition at 10 µM came to 91%.

Consider `O=C(NCc1c(C2CC2)ccc2[nH]ncc12)c1cc(F)c(F)c(F)c1` [Example 79, N-((5-cyclopropyl-1H-indazol-4-yl)methyl)-3,4,5-trifluoro-benzamide], for which the inhibition at 10 µM amounted to 92%. Take `COc1ccc2ncn(C)c2c1CNC(=O)c1ccc(C)c(C(F)(F)F)c1` [Example 47, N-((6-methoxy-1-methyl-1H-benzimidazol-7-yl)-methyl)-4-methyl-3-(trifluoromethyl)benzamide]: the inhibition at 10 µM worked out at 85%. For the compound `Cc1ccc2ncn(C)c2c1CNC(=O)c1ccc(OC(F)F)c(F)c1` [Example 109, 4-(difluoromethoxy)-N-((1,6-dimethyl-1H-benzimidazol-7-yl)methyl)-3-fluorobenzamide], the inhibition at 10 µM came to 92%. In the case of `COc1ccc2[nH]nnc2c1CNC(=O)c1ccc(OC(F)(F)F)cc1` [Example 213, N-((5-methoxy-1H-benzotriazol-4-yl)methyl)-4-(trifluoromethoxy)-benzamide] it was 98%.
